Laboratory results: the supplement of paper PMC4380931
± gives the standard deviation of the averaged measurements.

Experiments:
WM1552C [1] = assay: apoptotic fraction of cells (caspase-3 NucView488 positive); higher = more apoptosis
Procedure: (§1)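 BRAF V600E/D melanoma cell lines were seeded in 96-well plates, treated in 4 replicates with seven doses (3.16 nM to 3.16 uM) of RAF/MEK inhibitors for 24, 48 or 72 h, and stained with Hoechst 33342 (nuclei) and DEVD-NucView488 caspase-3 substrate. Plates were imaged on an Operetta. Relative viability is the cell count normalised to a DMSO-treated control; apoptosis fraction is the fraction of NucView488-positive nuclei.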

WM115 = assay: as above
Procedure: as §1

MZ7MEL = assay: as above
Procedure: as §1

SKMEL28 = assay: as above
Procedure: as §1

MMACSF = assay: as above
Procedure: as §1

WM1552C [2] = assay: relative viability (cell count relative to DMSO-treated control) (fraction of DMSO control); higher = more viable cells / less drug effect
Procedure: as §1

C32 = assay: as above
Procedure: as §1

Cc1ccc(NC(=O)c2cccc(C(C)(C)C#N)c2)cc1Nc1ccc2ncn(C)c(=O)c2c1 [AZ628]
Conditions | apoptotic fraction of cells, MMACSF | apoptotic fraction of cells, MZ7MEL | apoptotic fraction of cells, SKMEL28 | apoptotic fraction of cells, WM115 | apoptotic fraction of cells, WM1552C [1] | relative viability, C32 | relative viability, WM1552C [2]
24 h, 0.00316 µM | 0.0452 ± 0.0074 | 0.0132 ± 0.006 | – | 0.0464 ± 0.011 | 0.0672 ± 0.0095 | 1.09 ± 0.15 | 0.959 ± 0.015
24 h, 0.01 µM | 0.0505 ± 0.0049 | 0.0129 ± 0.0019 | – | 0.0415 ± 0.0061 | 0.0724 ± 0.0046 | 1.12 ± 0.043 | 0.982 ± 0.019
24 h, 0.0316 µM | 0.0425 ± 0.00091 | 0.0104 ± 0.0083 | – | 0.0535 ± 0.0073 | 0.0622 ± 0.0018 | 1.05 ± 0.15 | 0.99 ± 0.044
24 h, 0.1 µM | 0.0308 ± 0.0097 | 0.00814 ± 0.0047 | – | 0.0496 ± 0.013 | 0.0716 ± 0.0026 | 1.02 ± 0.061 | 1.01 ± 0.026
24 h, 0.316 µM | 0.0456 ± 0.0044 | 0.0204 ± 0.0053 | – | 0.0725 ± 0.023 | 0.0799 ± 0.0038 | 0.87 ± 0.05 | 0.974 ± 0.0076
24 h, 1 µM | 0.0524 ± 0.0063 | 0.032 ± 0.015 | – | 0.135 ± 0.023 | 0.0776 ± 0.006 | 0.757 ± 0.036 | 0.996 ± 0.0037
24 h, 3.16 µM | 0.0606 ± 0.0028 | 0.0453 ± 0.0093 | – | 0.202 ± 0.1 | 0.104 ± 0.018 | 0.877 ± 0.035 | 0.928 ± 0.045
48 h, 0.00316 µM | 0.0483 ± 0.0032 | 0.0137 ± 0.0038 | 0.04 ± 0.0087 | 0.0302 ± 0.0073 | 0.0725 ± 0.013 | 1.17 ± 0.085 | 1.01 ± 0.017
48 h, 0.01 µM | 0.0434 ± 0.0037 | 0.0171 ± 0.0039 | 0.0326 ± 0.0059 | 0.0498 ± 0.014 | 0.0688 ± 0.012 | 1.14 ± 0.19 | 1 ± 0.025
48 h, 0.0316 µM | 0.0445 ± 0.0047 | 0.0173 ± 0.00068 | 0.032 ± 0.0054 | 0.0357 ± 0.0068 | 0.0702 ± 0.021 | 1.01 ± 0.11 | 0.964 ± 0.057
48 h, 0.1 µM | 0.0497 ± 0.0076 | 0.0263 ± 0.006 | 0.0352 ± 0.0054 | 0.0517 ± 0.007 | 0.0329 ± 0.014 | 0.793 ± 0.072 | 0.772 ± 0.11
48 h, 0.316 µM | 0.0653 ± 0.0076 | 0.0421 ± 0.0069 | 0.0404 ± 0.0032 | 0.139 ± 0.063 | 0.0464 ± 0.022 | 0.428 ± 0.075 | 0.665 ± 0.14
48 h, 1 µM | 0.159 ± 0.024 | 0.0561 ± 0.0057 | 0.063 ± 0.0078 | 0.311 ± 0.039 | 0.0857 ± 0.02 | 0.109 ± 0.0073 | 0.647 ± 0.038
48 h, 3.16 µM | 0.25 ± 0.017 | 0.0749 ± 0.0098 | 0.09 ± 0.0097 | 0.379 ± 0.043 | 0.108 ± 0.032 | 0.0749 ± 0.0091 | 0.644 ± 0.033
72 h, 0.00316 µM | 0.0431 ± 0.004 | 0.0208 ± 0.0082 | 0.0319 ± 0.0039 | 0.0295 ± 0.0037 | 0.0855 ± 0.004 | 0.992 ± 0.19 | 1.03 ± 0.059
72 h, 0.01 µM | 0.0411 ± 0.0056 | 0.0145 ± 0.0031 | 0.028 ± 0.0073 | 0.0285 ± 0.0053 | 0.0732 ± 0.0055 | 1.1 ± 0.099 | 1.11 ± 0.09
72 h, 0.0316 µM | 0.0335 ± 0.0051 | 0.0428 ± 0.01 | 0.0262 ± 0.0049 | 0.0418 ± 0.0034 | 0.0827 ± 0.026 | 0.947 ± 0.12 | 0.948 ± 0.25
72 h, 0.1 µM | 0.083 ± 0.018 | 0.156 ± 0.011 | 0.0319 ± 0.011 | 0.159 ± 0.039 | 0.0883 ± 0.0036 | 0.45 ± 0.024 | 0.736 ± 0.073
72 h, 0.316 µM | 0.226 ± 0.014 | 0.236 ± 0.026 | 0.0526 ± 0.0099 | 0.419 ± 0.052 | 0.134 ± 0.0099 | 0.163 ± 0.029 | 0.555 ± 0.045
72 h, 1 µM | 0.465 ± 0.012 | 0.265 ± 0.026 | 0.107 ± 0.0053 | 0.644 ± 0.092 | 0.153 ± 0.0054 | 0.059 ± 0.0094 | 0.484 ± 0.041
72 h, 3.16 µM | 0.62 ± 0.023 | 0.293 ± 0.012 | 0.142 ± 0.0076 | 0.82 ± 0.04 | 0.172 ± 0.0067 | 0.0269 ± 0.0051 | 0.442 ± 0.036
